Data: patent US12344610B2, “APOL1 inhibitors and methods of use” (Maze Therapeutics, Inc., priority 2022, dated 2025)

Columns and labels:
Assay type in all cases: cell-based
[1] = test system: Trypanosoma brucei Lister 427 VSG221 with APOL1 G1 recombinant protein; assay: APOL1 G1 trypanosome cell rescue assay (Example B5); conditions: Trypanosoma brucei, 20 h, read-out: APOL1 G1 Trypanosome Rescue EC50, Trypanosoma brucei Lister 427 VSG221 with APOL1 G1 recombinant protein, 20 hours, CellTiter-Glo; geometric mean of at least 2 assay runs; † = single assay run
In short: (§1)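 Viability read by CellTiter-Glo luminescence after 20 h co-incubation (37° C, 5% CO2) of 250 trypanosomes/well in modified HMI-9 with test compound (duplicate 11-point, 2-fold dilutions, 0.4% DMSO) and APOL1 protein, […]. Protein: mature residues 28-398, E. coli inclusion-body refolded, tag cleaved, in DDM.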

[2] = test system: Trypanosoma brucei Lister 427 VSG221 with APOL1 G2 recombinant protein; assay: APOL1 G2 trypanosome cell rescue assay (Example B5); conditions: Trypanosoma brucei, 20 h, read-out: APOL1 G2 Trypanosome Rescue EC50, Trypanosoma brucei Lister 427 VSG221 with APOL1 G2 recombinant protein, 20 hours, CellTiter-Glo; geometric mean of at least 2 assay runs; † = single assay run
In short: as §1

[3] = test system: HEK293 clonal cell line overexpressing APOL1 G1; assay: APOL1 G1 HEK293 cell rescue assay (Example B3); conditions: Homo sapiens, HEK293, HEK293 clonal line overexpressing APOL1 G1; geometric mean of at least 2 runs; † = single run; ¥ = concentration at 50% rescue estimated (no sigmoidal curve)
In short: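 Rescue of cell death caused by APOL1 G1 overexpression was measured in a clonal HEK293 line. Compounds were tested in duplicate on one plate, and EC50s were geometric means across at least two runs on different days. Some values are estimated 50%-rescue concentrations where curve fitting failed.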

[4] = test system: Trypanosoma brucei Lister 427 VSG221 with APOL1 G0 recombinant protein; assay: APOL1 G0 trypanosome cell rescue assay (Example B5); conditions: Trypanosoma brucei, 20 h, read-out: APOL1 G0 Trypanosome Rescue EC50, Trypanosoma brucei Lister 427 VSG221 with APOL1 G0 recombinant protein, 20 hours, CellTiter-Glo; geometric mean of at least 2 assay runs; † = single assay run
In short: as §1

Structure (SMILES)	EC50 [1] [nM]	EC50 [2] [nM]	EC50 [3] [nM]	EC50 [4] [nM]
O=C1CCc2cc(OCCN3CCC4(CC3)C(=O)Nc3ccc(Cl)cc34)ccc2N1CCO [Compound 162, 5-chloro-1′-(2-{[1-(2-hydroxyethyl)-2-oxo-1,2,3,4-tetrahydroquinolin-6-yl]oxy}ethyl)-1,2-dihydrospiro[indole-3,4′-piperidin]-2-one]	142	50.9	174	143
CS(=O)(=O)c1ccc(OCCN2CCC3(CC2)C(=O)Nc2ccc(Cl)cc23)cc1OC(F)F [Compound 163, 5-chloro-1′-{2-[3-(difluoromethoxy)-4-methanesulfonylphenoxy]ethyl}-1,2-dihydrospiro[indole-3,4′-piperidin]-2-one]	90	21.2	113	55.9
CS(=O)(=O)c1ccc(OCCN2CCC3(CC2)C(=O)Nc2ccc(C#N)cc23)cc1OC(F)F [Compound 164, 1′-{2-[3-(difluoromethoxy)-4-methanesulfonylphenoxy]ethyl}-2-oxo-1,2-dihydrospiro[indole-3,4′-piperidine]-5-carbonitrile]	349	87.1	316	211
CS(=O)(=O)C1(c2ccc(OCCN3CCC4(CC3)C(=O)Nc3ccc(Cl)cc34)cc2C(F)(F)F)COC1 [Compound 165, 5-chloro-1′-{2-[4-(3-methanesulfonyloxetan-3-yl)-3-(trifluoromethyl)phenoxy]ethyl}-1,2-dihydrospiro[indole-3,4′-piperidin]-2-one]	33.8	11.1	59	28.7
CS(=O)(=O)C1(c2ccc(OCCN3CCC4(CC3)C(=O)Nc3ccc(C#N)cc34)cc2C(F)(F)F)COC1 [Compound 166, 1′-{2-[4-(3-methanesulfonyloxetan-3-yl)-3-(trifluoromethyl)phenoxy]ethyl}-2-oxo-1,2-dihydrospiro[indole-3,4′-piperidine]-5-carbonitrile]	112	33.8	163	94
O=C1Nc2ccc(Cl)cc2C12CCN(CCOc1ccc3c(c1)CCNS3(=O)=O)CC2 [Compound 167, 6-(2-{5-chloro-2-oxo-1,2-dihydrospiro[indole-3,4′-piperidin]-1′-yl}ethoxy)-3,4-dihydro-2H-1λ^6,2-benzothiazine-1,1-dione]	148	35	138	98.4
N#Cc1ccc2c(c1)C1(CCN(CCOc3ccc4c(c3)CCNS4(=O)=O)CC1)C(=O)N2 [Compound 168, 1′-{2-[(1,1-dioxo-3,4-dihydro-2H-1λ^6,2-benzothiazin-6-yl)oxy]ethyl}-2-oxo-1,2-dihydrospiro[indole-3,4′-piperidine]-5-carbonitrile]	638	191	> 7840	496
CN1C(=O)Cc2cc(OCCN3CCC4(CC3)C(=O)Nc3ccc(C#N)cc34)cc(F)c21 [Compound 169, 1′-{2-[(7-fluoro-1-methyl-2-oxo-2,3-dihydro-1H-indol-5-yl)oxy]ethyl}-2-oxo-1,2-dihydrospiro[indole-3,4′-piperidine]-5-carbonitrile]	918	295	1030	619
CC1(Oc2ncc(OCCN3CCC4(CC3)C(=O)Nc3ccc(Cl)cc34)cn2)COC1 [Compound 172, 5-chloro-1′-[2-({2-[(3-methyloxetan-3-yl)oxy]pyrimidin-5-yl}oxy)ethyl]-1,2-dihydrospiro[indole-3,4′-piperidin]-2-one]	353	108	188	246
CCS(=O)(=O)C1(c2ccc(OCCN3CCC4(CC3)C(=O)Nc3ccc(C#N)cc34)cc2)COC1 [Compound 174, 1′-(2-{4-[3-(ethanesulfonyl)oxetan-3-yl]phenoxy}ethyl)-2-oxo-1,2-dihydrospiro[indole-3,4′-piperidine]-5-carbonitrile]	481	137	253	401
CS(=O)(=O)C1(c2ccc(OCCN3CCC4(CC3)C(=O)Nc3ccc(Cl)cc34)cc2)CCC1 [Compound 180, 5-chloro-1′-{2-[4-(1-methanesulfonylcyclobutyl)phenoxy]ethyl}-1,2-dihydrospiro[indole-3,4′-piperidin]-2-one]	47.7	13.3	74.9	35.2
CS(=O)(=O)C1(c2ccc(OCCN3CCC4(CC3)C(=O)Nc3ccc(C#N)cc34)cc2)CCC1 [Compound 181, 1′-{2-[4-(1-methanesulfonylcyclobutyl)phenoxy]ethyl}-2-oxo-1,2-dihydrospiro[indole-3,4′-piperidine]-5-carbonitrile]	232	70.7	194	158
CS(=O)(=O)C1(c2ccc(OCCN3CCC4(CC3)C(=O)Nc3ccc(Cl)cc34)cc2)CC2(COC2)C1 [Compound 182, 5-chloro-1′-[2-(4-{6-methanesulfonyl-2-oxaspiro[3.3]heptan-6-yl}phenoxy)ethyl]-1,2-dihydrospiro[indole-3,4′-piperidin]-2-one]	481	138	225	401
CS(=O)(=O)C1(c2ccc(OCCN3CCC4(CC3)C(=O)N(CC(F)(F)F)c3ccc(C#N)cc34)cc2)COC1 [Compound 184, 1′-{2-[4-(3-methanesulfonyloxetan-3-yl)phenoxy]ethyl}-2-oxo-1-(2,2,2-trifluoroethyl)-1,2-dihydrospiro[indole-3,4′-piperidine]-5-carbonitrile]	2080	585	~2500	1600
CS(=O)(=O)C1(c2ccc(OCCN3CCC4(CC3)C(=O)N(CC(F)(F)F)c3ccc(Cl)cc34)cc2)COC1 [Compound 185, 5-chloro-1′-{2-[4-(3-methanesulfonyloxetan-3-yl)phenoxy]ethyl}-1-(2,2,2-trifluoroethyl)-1,2-dihydrospiro[indole-3,4′-piperidin]-2-one]	479	140	231	310
CS(=O)(=O)C1(c2ccc(OCCN3CCC4(CC3)C(=O)Nc3ccc(Cl)cc34)cc2)CCOCC1 [Compound 188, 5-chloro-1′-{2-[4-(4-methanesulfonyloxan-4-yl)phenoxy]ethyl}-1,2-dihydrospiro[indole-3,4′-piperidin]-2-one]	96.5	26.7	122	71
CN1C(=O)C2(CCN(CCOc3cc(F)c(C4(S(C)(=O)=O)COC4)c(F)c3)CC2)c2cc(C#N)ccc21 [Compound 189, 1′-{2-[3,5-difluoro-4-(3-methanesulfonyloxetan-3-yl)phenoxy]ethyl}-1-methyl-2-oxo-1,2-dihydrospiro[indole-3,4′-piperidine]-5-carbonitrile]	246	61.4	148	167
CC(C)(c1ccc(OCCN2CCC3(CC2)C(=O)Nc2ccc(C#N)cc23)cn1)S(C)(=O)=O [Compound 191, 1′-(2-{[6-(2-methanesulfonylpropan-2-yl)pyridin-3-yl]oxy}ethyl)-2-oxo-1,2-dihydrospiro[indole-3,4′-piperidine]-5-carbonitrile]	304	104	283	251
